In patent US7977327B2, “Substituted pyrrolidine derivative” (Daiichi Sankyo Company, Limited, priority 2004, dated 2011):
In brackets after ≈: the same amount, converted by molar mass. Structures can show the parent of a compound that is named as a salt. Where two headings read alike, the source gives them in different places. Marks after values point to notes of the source that are not given here.

Legend:
[1] = system: E. coli NIHJ; assay: Antibacterial activity (MIC), standard method of the Japan Society of Chemotherapy; type: cell-based; conditions: Escherichia coli
Protocol: (§1) The antimicrobial activities of the compounds of the present invention were determined according to a standard method designated by the Japan Society of Chemotherapy. The results are expressed by MIC (μg/mL) (Table 1). In Table 1, S. aureus 870307 and S. pneumonia J24 are quinolone-resistant bacteria.

[2] = system: E. faevcalis ATCC 19433; assay: as above; type: cell-based
Protocol: as §1

[3] = system: K. pneumoniae TYPE I; assay: as above; type: cell-based; conditions: Klebsiella pneumoniae
Protocol: as §1

[4] = system: P. Vulgalis 08601; assay: as above; type: cell-based
Protocol: as §1

[5] = system: P. aeruginosa 32104; assay: as above; type: cell-based; conditions: Pseudomonas aeruginosa
Protocol: as §1

[6] = system: P. aeruginosa 32121; assay: as above; type: cell-based; conditions: Pseudomonas aeruginosa
Protocol: as §1

[7] = system: S. aureus 870307; assay: as above; type: cell-based; conditions: Staphylococcus aureus
Protocol: as §1

[8] = system: S. aureus FDA 209P; assay: as above; type: cell-based; conditions: Staphylococcus aureus, FDA209P
Protocol: as §1

[9] = system: S. epidermidis 56500; assay: as above; type: cell-based; conditions: Staphylococcus epidermidis
Protocol: as §1

[10] = system: S. flexneri 2A 5503; assay: as above; type: cell-based; conditions: Shigella flexneri, 2A5503, read-out: MIC
Protocol: as §1

[11] = system: S. maltophilia IID 1275; assay: as above; type: cell-based; conditions: Stenotrophomonas maltophilia, IID1275
Protocol: as §1

[12] = system: S. marcescens 10100; assay: as above; type: cell-based; conditions: Serratia marcescens
Protocol: as §1

[13] = system: S. pneumoniae J24; assay: as above; type: cell-based; conditions: Streptococcus pneumoniae
Protocol: as §1

[14] = system: S. pyogenes G-36; assay: as above; type: cell-based; conditions: Streptococcus pyogenes, G36
Protocol: as §1

[15] = system: Chinese hamster lung (CHL/IU) cells; assay: Effect of inducing chromosomal aberration; type: cell-based; conditions: for Percentile induction of structural aberration (TA %): 24 hours, CHL/IU cells; for Significant increase in number of the cells exhibiting chromosomal aberration: at a concentration of up to 100 μg/mL
Protocol: From each sample solution, samples to be tested having a concentration of 1, 3, 10, 30, 50, and 100 μg/mL (as reduced to free form) were prepared. As a negative control, 0.1 mol/L NaOH was employed.
Chinese hamster lung (CHL/IU) cells in logarithmic growth phase were employed. The cells were treated in a culture solution containing each sample to be tested for 24 hours. Subsequently, a chromosome specimen was prepared from the thus-treated cells. The culture solution employed was an Eagle's MEM (product of NISSUI PHARMACEUTICAL CO., LTD.) medium containing 15% fetal bovine serum (15% FBS-MEM).
In each sample concentration, 100 cells during metaphase were observed, to thereby record types and numbers of the chromosomal aberration.

[16] = system: Slc:ddY male mice; assay: Effect of inducing convulsion, intracisternal administration to mice; type: in vivo; conditions: i.cist., Probit method
Protocol: The compounds (Compound Nos. 1, 2, and 3) of the present invention and Comparative Compounds A and B were individually dissolved in 5% glucose, to thereby prepare several samples to be tested. Groups of six-week-old Slc:ddY male mice (body weight: 23.9 to 27.4 g), each group consisting of 6 mice, were employed in the test. Each of the above-prepared samples was administered intracisternally to each mouse belonging to each group at concentrations shown in Tables 2 and 3 (5 μL/mouse). During 30 minutes after administration, it was observed whether each mouse suffered convulsion or died in an individual cage. Administration was performed according to the method described by Ueda, et al. (Reference 1).
Reference 1: Ueda H, Amano H, Shiomi H, Takagi H: Comparison of the analgesic effects of various opioid peptides by a newly devised intracisternal injection technique in conscious mice. Eur J Pharmacol. 1979; 56: 265-8.
Significant difference test between groups was performed in terms of incidence of convulsion according to the Fisher's direct probability calculation method (one-sided test, level of significance: P<0.05). On the basis of percentile incidence of convulsion, CD50 (50% concentration for inducing convulsion) and 95% confidence limit were calculated by the Probit method.

[17] = E. faevcalis ATCC 19433, read-out: MIC
[18] = K. pneumoniae TYPE I, read-out: MIC
[19] = P. Vulgalis 08601, read-out: MIC
[20] = P. aeruginosa 32104, read-out: MIC
[21] = P. aeruginosa 32121, read-out: MIC
[22] = S. aureus 870307, quinolone-resistant, read-out: MIC
[23] = S. aureus FDA 209P, read-out: MIC
[24] = S. epidermidis 56500, read-out: MIC
[25] = S. maltophilia IID 1275, read-out: MIC
[26] = S. marcescens 10100, read-out: MIC
[27] = S. pneumoniae J24, quinolone-resistant, read-out: MIC
[28] = S. pyogenes G-36, read-out: MIC

Compound | MIC ([1]; E. coli NIHJ, read-out: MIC) | MIC [2, 17] | MIC [3, 18] | MIC [4, 19] | MIC [5, 20] | MIC [6, 21] | MIC [7, 22] | MIC [8, 23] | MIC [9, 24] | MIC [10] | MIC [11, 25] | MIC [12, 26] | MIC [13, 27] | MIC [14, 28] | Percentile induction of structural aberration (TA %) ([15]; 1 μg/mL) | Percentile induction of structural aberration (TA %) ([15]; 3 μg/mL) | Percentile induction of structural aberration (TA %) ([15]; 10 μg/mL) | Percentile induction of structural aberration (TA %) ([15]; 30 μg/mL) | Percentile induction of structural aberration (TA %) ([15]; 50 μg/mL) | Percentile induction of structural aberration (TA %) ([15]; 100 μg/mL) | other results
CC[C@H]1CN(c2c(F)cc3c(=O)c(C(=O)O)cn([C@@H]4C[C@@H]4F)c3c2C)C[C@H]1N [Compound No. 2, 7-[(3S,4S)-3-Amino-4-ethylpyrrolidin-1-yl]-6-fluoro-1-[(1R,2S)-2-fluorocyclopropyl]-8-methyl-1,4-dihydro-4-oxoquinoline-3-carboxylic acid] | ≤ 0.003 µg/mL | 0.1 µg/mL (≈ 0.255 µM) | 0.025 µg/mL (≈ 0.0639 µM) | 0.006 µg/mL (≈ 0.0153 µM) | 0.05 µg/mL (≈ 0.128 µM) | 0.025 µg/mL (≈ 0.0639 µM) | 0.39 µg/mL (≈ 0.996 µM) | 0.006 µg/mL (≈ 0.0153 µM) | 0.025 µg/mL (≈ 0.0639 µM) | ≤ 0.003 µg/mL | 0.05 µg/mL (≈ 0.128 µM) | 0.025 µg/mL (≈ 0.0639 µM) | 0.025 µg/mL (≈ 0.0639 µM) | 0.025 µg/mL (≈ 0.0639 µM) | 1% | 1% | 1% | 2% | 3% | 8% | Significant increase in number of the cells exhibiting chromosomal aberration [15]: not observed
COc1c(N2C[C@@H](N)[C@@H](C)C2)c(F)cc2c(=O)c(C(=O)O)cn([C@@H]3C[C@@H]3F)c12 [Comparative Compound A, 7-[(3S,4S)-3-Amino-4-methylpyrrolidin-1-yl]-6-fluoro-1-[(1R,2S)-2-fluorocyclopropyl]-1,4-dihydro-8-methoxy-4-oxoquinoline-3-carboxylic acid-hydrochloride, reference compound] |  |  |  |  |  |  |  |  |  | 0.006 µg/mL |  |  |  |  |  |  |  |  |  |  | MIC [1]: 0.006 µg/mL; MIC [2]: 0.1 µg/mL; MIC [3]: 0.05 µg/mL; MIC [4]: 0.006 µg/mL; MIC [5]; 32104: 0.1 µg/mL; MIC [6]; 32121: 0.05 µg/mL; MIC [7]; 870307: 0.39 µg/mL; MIC [8]: 0.012 µg/mL; MIC [9]; 56500: 0.05 µg/mL; MIC [11]: 0.1 µg/mL; MIC [12]; 10100: 0.05 µg/mL; MIC ([13]; J24): 0.025 µg/mL; MIC [14]: 0.05 µg/mL; CD50 (50% concentration for inducing convulsion), with 95% confidence limit [16]: 12.7 (7.7-24.9)^a) μg/5 μL/mouse
C[C@H]1CN(c2c(F)cc3c(=O)c(C(=O)O)cn4c3c2OC[C@@H]4C)C[C@H]1N [Comparative Compound B, (3S)-10-[(3S,4S)-3-Amino-4-methylpyrrolidin-1-yl]-9-fluoro-2,3-dihydro-3-methyl-7-oxo-7H-pyrido[1,2,3-de][1,4]benzoxazine-6-carboxylic acid-hydrochloride, reference compound] |  |  |  |  |  |  |  |  |  | 0.012 µg/mL |  |  |  |  |  |  |  |  |  |  | MIC [1]: 0.012 µg/mL; MIC [2]: 0.2 µg/mL; MIC [3]: 0.05 µg/mL; MIC [4]: 0.006 µg/mL; MIC [5]; 32104: 0.1 µg/mL; MIC [6]; 32121: 0.025 µg/mL; MIC [7]; 870307: 3.13 µg/mL; MIC [8]: 0.012 µg/mL; MIC [9]; 56500: 0.1 µg/mL; MIC [11]: 0.39 µg/mL; MIC [12]; 10100: 0.05 µg/mL; MIC ([13]; J24): 0.1 µg/mL; MIC [14]: 0.1 µg/mL; CD50 (50% concentration for inducing convulsion), with 95% confidence limit [16]: 28.6 (16.8-48.5)^a) μg/5 μL/mouse
CC[C@H]1CN(c2c(F)cc3c(=O)c(C(=O)O)cn4c3c2OC[C@@H]4C)C[C@H]1N [Compound No. 3, (3S)-10-[(3S,4S)-3-Amino-4-ethylpyrrolidin-1-yl]-9-fluoro-2,3-dihydro-3-methyl-7-oxo-7H-pyrido[1,2,3-de][1,4]benzoxazine-6-carboxylic acid] | 0.006 µg/mL (≈ 0.016 µM) | 0.1 µg/mL (≈ 0.266 µM) | 0.05 µg/mL (≈ 0.133 µM) | 0.006 µg/mL (≈ 0.016 µM) | 0.1 µg/mL (≈ 0.266 µM) | 0.05 µg/mL (≈ 0.133 µM) | 0.78 µg/mL (≈ 2.08 µM) | 0.012 µg/mL (≈ 0.032 µM) | 0.05 µg/mL (≈ 0.133 µM) | 0.006 µg/mL (≈ 0.016 µM) | 0.2 µg/mL (≈ 0.533 µM) | 0.025 µg/mL (≈ 0.0666 µM) | 0.1 µg/mL (≈ 0.266 µM) | 0.1 µg/mL (≈ 0.266 µM) | 3% | 0% | 2% | 1% | 5% | 9% | CD50 (50% concentration for inducing convulsion), with 95% confidence limit [16]: 64.5 (47.7-80.8) μg/5 μL/mouse; Significant increase in number of the cells exhibiting chromosomal aberration [15]: not observed
Cc1c(N2C[C@@H](N)[C@@H](C(C)C)C2)c(F)cc2c(=O)c(C(=O)O)cn([C@@H]3C[C@@H]3F)c12 [Compound No. 16, 7-[(3S,4S)-3-Amino-4-isopropylpyrrolidine-1-yl]-6-fluoro-1-[(1R,2S)-2-fluorocyclopropyl]-8-methyl-1,4-dihydro-4-oxoquinoline-3-carboxylic acid] | 0.006 µg/mL (≈ 0.0148 µM) | 0.1 µg/mL (≈ 0.247 µM) | 0.025 µg/mL (≈ 0.0617 µM) | 0.025 µg/mL (≈ 0.0617 µM) | 0.2 µg/mL (≈ 0.493 µM) | 0.1 µg/mL (≈ 0.247 µM) | 0.1 µg/mL (≈ 0.247 µM) | 0.006 µg/mL (≈ 0.0148 µM) | 0.025 µg/mL (≈ 0.0617 µM) | 0.006 µg/mL (≈ 0.0148 µM) | 0.05 µg/mL (≈ 0.123 µM) | 0.05 µg/mL (≈ 0.123 µM) | 0.05 µg/mL (≈ 0.123 µM) | 0.025 µg/mL (≈ 0.0617 µM) |  |  |  |  |  |  | melting point: 124 to 127 °C
COc1c(N2C[C@@H](N)[C@@H](C3CC3)C2)c(F)cc2c(=O)c(C(=O)O)cn([C@@H]3C[C@@H]3F)c12 [Compound No. 8, 7-[(3S,4S)-3-Amino-4-cyclopropylpyrrolidin-1-yl]-6-fluoro-1-[(1R,2S)-2-fluorocyclopropyl]-8-methoxy-1,4-dihydro-4-oxoquinoline-3-carboxylic acid] | 0.006 µg/mL (≈ 0.0143 µM) | 0.1 µg/mL (≈ 0.238 µM) | 0.05 µg/mL (≈ 0.119 µM) | 0.025 µg/mL (≈ 0.0596 µM) | 0.2 µg/mL (≈ 0.477 µM) | 0.1 µg/mL (≈ 0.238 µM) | 0.39 µg/mL (≈ 0.93 µM) | 0.012 µg/mL (≈ 0.0286 µM) | 0.1 µg/mL (≈ 0.238 µM) | 0.025 µg/mL (≈ 0.0596 µM) | 0.2 µg/mL (≈ 0.477 µM) | 0.1 µg/mL (≈ 0.238 µM) | 0.1 µg/mL (≈ 0.238 µM) | 0.1 µg/mL (≈ 0.238 µM) |  |  |  |  |  |  | melting point: 211 to 214 °C
Cc1c(N2C[C@@H](N)[C@@H](C)C2)c(F)cc2c(=O)c(C(=O)O)cn(C3CC3)c12 [Comparative Compound C, reference compound] | 0.012 µg/mL (≈ 0.0334 µM) | 0.2 µg/mL (≈ 0.556 µM) | 0.05 µg/mL (≈ 0.139 µM) | 0.05 µg/mL (≈ 0.139 µM) | 0.39 µg/mL (≈ 1.09 µM) | 0.2 µg/mL (≈ 0.556 µM) | 1.56 µg/mL (≈ 4.34 µM) | 0.025 µg/mL (≈ 0.0696 µM) | 0.1 µg/mL (≈ 0.278 µM) | 0.025 µg/mL (≈ 0.0696 µM) | 0.2 µg/mL (≈ 0.556 µM) | 0.2 µg/mL (≈ 0.556 µM) | 0.1 µg/mL (≈ 0.278 µM) | 0.2 µg/mL (≈ 0.556 µM) | 3% | 4% | 5% | 72* % | 98* % | TOX*^2 | Observation of chromosomes (cytotoxicity) ([15]; at a concentration of 100 μg/mL): could not be observed
